Laboratory results taken from PMC12029992, “Beyond-Rule-of-Five Compounds Are Not Different: In Vitro–In Vivo Extrapolation of Female CD-1 Mouse Clearance Based on Merck Healthcare KGaA Compound Set” (Pharmaceuticals, 2025).
Where two headings read alike, the source gives them in different places.

Legend:
Caco-2 cells (TC7 clone) = experiment: Caco-2 assay (permeability, efflux ratio); assay type: in vitro ADME
Description: (§1) Reagents and Materials: Phosphate Buffer 20mM pH 7.4: EMS, Art No. 11601-40; DMSO Merck Art. No. 102950; Acetonitrile Merck, Art. No. 100030, Methanol Merck Art. No.
106007; Formic Acid Merck Art.No.100264; Acetonitrile Merck Art. No.10030; Filtration Plate Millipore MultiScreen HTS HV 0.45uM; 96 Well Millipore Art. No. MSHVN4510; Column Waters XBridge Column C8 3.5μm (Waters Cat. No. 186003053); HPLC vials VWR Cat. No. 5480028; Micro-Inserts VWR Cat. No. 548-0006; Screw caps VWR Cat. No.
The Caco-2 assays were performed in a transwell assay setup using Caco-2 cells (TC7 clone). The Caco-2 cells were seeded into the apical wells (125000 cells per well) in DMEM (Dulbecco’s Modified Eagle’s Medium) with 20% FBS (fetal bovine serum) into Corning 24-well transwell plates and cultured for 14-21 days. Prior to the experiment, the plates were washed with HBSS (Hanks' Balanced Salt Solution). Apparent permea-bility Papp was determined from apical-to-basolateral (Papp,AB) by adding 1 […] in HBSS into the apical compartment and HBSS in the basolateral compart-ment, and vice versa for Papp,BA from basolateral-to-apical. Apical volumes were 250 μL, basolateral volumes were 750 μL. DMSO content was <1 % (v/v) in all wells. Monolayer tightness was controlled using melagatran as tightness marker.
Samples were taken from both compartments at timepoint t0 and after 2 hours incuba-tion at 37 °C in 5% CO2 and 100% humidity, and analyzed via UHPLC-MS/MS. The ap-parent permeability Papp was calculated as follows:
P௔௣௣ = Δc௥௘௖Δt∙ V௥௘௖A x cௗ௢௡,଴
Where ∆crec/∆t is the change of concentration in the receiver compartment over the incu-bation time (i.e. 2 hours), Vrec is volume of the receiver compartment, cdon,0 is the concen-tration in the donor compartment at time t0, and A is the surface of the membrane on which the cells grew (i.e. 0.33 cm²).
Mass balance was checked after the experiment by determining the recovery after the […]
Recovery = nௗ௢௡,௘௡ௗ + nௗ௢௡,௥௘௖= cௗ௢௡,௘௡ௗ ∙Vௗ௢௡ + c௥௘௖ ,௘௡ௗ ∙V௥௘௖
The efflux ratio (ER) describes affinity towards efflux transporters:
The geometric mean of Papp,AB and Papp,BA was used as passive permeability Papp,pass.

female CD-1 mouse = experiment: IVIVE of mouse clearance from hepatocytes (well-stirred model, regression correction); conditions: for Fold obs. / pred. (hep.) CL,b,u - Kilford / in vitro (hep.) pred. CLint,b - Kilford / in vitro (hep.) pred. CLint,b,u - Kilford: Kilford fu,hep
Description: Compounds with phase II metabolism were removed from the microsome set (N = 25). […] The following regression equations were derived for microsomes and hepatocytes, respectively: log predicted CLint = 0.8 * log scaled CLint + 0.6 and log predicted CLint = 0.6 * log scaled CLint + 0.8, with CLint expressed in mL/min/kg.
According to Sohlenius-Sternbeck et al., the following equations were used for IVIVE: scaled CLint,b=in vitro CLint∗microsomes/hepatocytes/gram of liver∗liver weight/body weight∗fu,p/fu,inc∗Rb
The physiological scaling factors, taken from Simcyp^TM version 13/1 (Certara), were 48 mg of microsomal protein per gram of liver (MPPGL), 101.7 × 10^6 hepatocytes per gram of liver (HPGL), a liver weight of 1.46 g, and a body weight of 0.025 kg. For microsomes and hepatocytes, fu,mic and fu,hep, were used as the unbound fraction in the incubation (fu,inc), respectively. predicted CLint,b=10^(log scaled CLint∗slope+intercept)
For microsomes, a slope of 0.8 and an intercept of 0.6 were used, and for hepatocytes, a slope of 0.6 and an intercept of 0.8, according to the regression equations derived above. predicted CL,b=pred. CLint,b∗QH/pred. Clint,b+QH
CLp/Rb observed CLint,b=QH∗obs. CL,b/QH−obs. CL,b
All unbound clearance terms were calculated by dividing the respective clearance by fu,p. predicted/observed CL,b,u=pred./obs. CL,b/fu,p
The above-described approach was applied for the IVIVE of clearance of the data set analyzed in this study. Additionally, in order to evaluate the impact of the Kilford calculations as a surrogate for the experimentally determined free fraction in the in vitro systems, clearance was extrapolated using the Kilford equations [16] using the same regression coefficients.

Kinetic solubility = assay type: physicochemical
Description: The kinetic solubility (KSOL) determination is carried out in a 96-well plate filtration format where the sample (2 μL of sample stock solution 10mM DMSO) is combined to 98 μL of 20 mM buffer phosphate pH 7.4. The filtration plate is then incubated and agitated at 250 rpm for 120 minutes. After stirring, the plate is centrifuged at 2500 rpm for 3 minutes, allowing all solvent to be collected in the lower microplate. Next to avoid pre-cipitation, 50 μL of the filtered solution is diluted with 50 μL of 2% DMSO in pH 7.4 buffer solution to yield a 100 μM sample solution ready for H(U)PLC analytics.
For the standard, each compound is prepared by combining 2 μL of the sample stock solution 10mM DMSO to 198 μL Acetonitrile/Methanol/Eluant A ([…]).
For the evaluation, wavelength with maximum sensitivity is to be selected. The kinetic solubility is determined according to following formulas, whereas S is the targeted value […]
L = area௦௔௠௣௟௘ × concentration௦௧௔௡ௗ௔௥ௗ × dilution factor௦௔௠௣௟௘area௦௧௔௡ௗ௔௥ௗ × dilution factor௦௧௔௡ௗ௔௥ௗ with: L= Concentration of solved compound in buffer [μg/ml] and S= Molar concentra-tion of solved compound in buffer [mol/L]
Chromatographic conditions: Column Waters XBridge Column C8 3.5μm (Waters Cat No 186003053); Column temperature 37°C; Autosampler Room temperature (approx.
25°C); Injection volume 10 μL (HPLC) / 3μL (UPLC); Wavelength 220 nm, 254 nm, 290 nm. Eluant A: 1 mL Formic Acid + 999 mL Ultrapure Water; Eluant B: 1 mL Formic Acid […]
Table S5. Gradient for UHPLC analysis
Time Eluent A (%) Eluent B (%) Flow (ml/min)
as §1
106007; Formic Acid Merck Art.No.100264; Acetonitrile Merck Art. No.10030; Filtration Plate Millipore MultiScreen HTS HV 0.45uM; 96 Well Millipore Art. No. MSHVN4510; Column Waters XBridge Column C8 3.5μm (Waters Cat. No. 186003053); HPLC vials VWR Cat. No. 5480028; Micro-Inserts VWR Cat. No. 548-0006; Screw caps VWR Cat. No. […]

[1] = hepatocytes, experimental fu,hep

**Q.** With `COc1cccc(OCCCN)c1-c1cc(Nc2cnc(C#N)cn2)n[nH]1` [MSC020] as the compound, how does the “CaCo-2 Efflux ratio ER” value (Caco-2 cells (TC7 clone)) read?
**A.** 48.4

**Q.** And the “CaCo-2 Papp Passive” value (Caco-2 cells (TC7 clone); apparent passive permeability)?
**A.** 2.67 10e-6 cm/s

**Q.** And the “Fold obs. / pred. (hep.) CL,b,u - Kilford” value (female CD-1 mouse; hepatocytes)?
**A.** 1.5

**Q.** And the “in vitro (hep.) pred. CLint,b - Kilford” value (female CD-1 mouse; hepatocytes)?
**A.** 99.13 mL/min/kg

**Q.** And the “in vitro (hep.) pred. CLint,b,u - Kilford” value (female CD-1 mouse; hepatocytes)?
**A.** 516.30 mL/min/kg

**Q.** What about the “Fold obs. / pred. (hep.) CL,b,u - exp. fu,hep” value (female CD-1 mouse; [1]) of the same compound?
**A.** 1.5

**Q.** And the “in vitro (hep.) pred. CLint,b - exp. fu,hep” value (female CD-1 mouse; [1])?
**A.** 103.91 mL/min/kg

**Q.** What about the “in vitro (hep.) pred. CLint,b,u - exp. fu,hep” value (female CD-1 mouse; [1]) of the same compound?
**A.** 541.18 mL/min/kg

**Q.** And the “Kinetic solubility PBS pH 7.4” value (Kinetic solubility)?
**A.** 165.4 µM

**Q.** With `O=C(O)c1cc(-c2ccc(F)cc2F)ccc1O` [MSC001] as the compound, how does the “CaCo-2 Efflux ratio ER” value (Caco-2 cells (TC7 clone)) read?
**A.** 2.6

**Q.** And the “CaCo-2 Papp Passive” value (Caco-2 cells (TC7 clone); apparent passive permeability)?
**A.** 25.85 10e-6 cm/s

**Q.** And the “Fold obs. / pred. (hep.) CL,b,u - Kilford” value (female CD-1 mouse; hepatocytes)?
**A.** 0.3

**Q.** What about the “in vitro (hep.) pred. CLint,b - Kilford” value (female CD-1 mouse; hepatocytes) of the same compound?
**A.** 9.82 mL/min/kg

**Q.** What about the “in vitro (hep.) pred. CLint,b,u - Kilford” value (female CD-1 mouse; hepatocytes) of the same compound?
**A.** 576.00 mL/min/kg

**Q.** And the “Fold obs. / pred. (hep.) CL,b,u - exp. fu,hep” value (female CD-1 mouse; [1])?
**A.** 0.3

**Q.** What about the “in vitro (hep.) pred. CLint,b - exp. fu,hep” value (female CD-1 mouse; [1]) of the same compound?
**A.** 9.94 mL/min/kg

**Q.** And the “in vitro (hep.) pred. CLint,b,u - exp. fu,hep” value (female CD-1 mouse; [1])?
**A.** 582.73 mL/min/kg

**Q.** And the “Kinetic solubility PBS pH 7.4” value (Kinetic solubility)?
**A.** > 200 µM

**Q.** Which results are given for `N#Cc1c[nH]c2c(C(=O)N3CCN(CCc4ccc(F)cc4)CC3)cccc12` [MSC213]?
**A.** CaCo-2 Efflux ratio ER (Caco-2 cells (TC7 clone); Caco-2): 1.0; CaCo-2 Papp Passive (Caco-2 cells (TC7 clone); Caco-2): 24.10 10e-6 cm/s; in vitro (hep.) pred. CLint,b - Kilford (female CD-1 mouse; from hepatocytes): 83.55 mL/min/kg; in vitro (hep.) pred. CLint,b,u - Kilford (female CD-1 mouse; from hepatocytes): 1799.14 mL/min/kg; in vitro (hep.) pred. CLint,b - exp. fu,hep (female CD-1 mouse; from hepatocytes, exp. fu,hep): 89.51 mL/min/kg; in vitro (hep.) pred. CLint,b,u - exp. fu,hep (female CD-1 mouse; from hepatocytes, exp. fu,hep): 1927.40 mL/min/kg; Fold obs. / pred. (hep.) CL,b,u - Kilford (female CD-1 mouse; hepatocytes): 1.4; Fold obs. / pred. (hep.) CL,b,u - exp. fu,hep (female CD-1 mouse; hepatocytes, exp. fu,hep): 1.3; Kinetic solubility PBS pH 7.4 (Kinetic solubility): 105.1 µM

**Q.** What does the source list for `CNC(=O)c1cc(Oc2ccc3nc(N[C@@H]4CCCC[C@H]4O)sc3c2)ccn1` [MSC003]?
**A.** CaCo-2 Efflux ratio ER (Caco-2 cells (TC7 clone)): 1.4; CaCo-2 Papp Passive (Caco-2 cells (TC7 clone); apparent passive permeability): 31.60 10e-6 cm/s; Fold obs. / pred. (hep.) CL,b,u - Kilford (female CD-1 mouse; hepatocytes): 0.356; in vitro (hep.) pred. CLint,b - Kilford (female CD-1 mouse; hepatocytes): 21.81 mL/min/kg; in vitro (hep.) pred. CLint,b,u - Kilford (female CD-1 mouse; hepatocytes): 285.43 mL/min/kg; Fold obs. / pred. (hep.) CL,b,u - exp. fu,hep (female CD-1 mouse; [1]): 0.36; in vitro (hep.) pred. CLint,b - exp. fu,hep (female CD-1 mouse; [1]): 21.48 mL/min/kg; in vitro (hep.) pred. CLint,b,u - exp. fu,hep (female CD-1 mouse; [1]): 281.21 mL/min/kg; Kinetic solubility PBS pH 7.4 (Kinetic solubility): 156.7 µM
